Kd data for 14 compounds are collected here from BindingDB's records for doi:10.1016/j.bmc.2005.09.050 (Lund University, 2006).

Common to all, as to assay: Fluorescence Polarization Assay
On the technique in general: Fluorescence polarisation rises when a labelled molecule tumbles more slowly, as on binding a larger partner.

For one assay, the target named is Galectin-3 (Homo sapiens, UniProt P17931). The settings on record: pH 7.2; 24 °C. The method, then:
(§1) In fluorescence polarization measurements, a fluorescent probe was excited with plane-polarized light and the degree of polarization remaining in the emitted light is measured. When the probe is bound to protein, it rotates slower than when free, and the remaining fluorescence polarization is higher. The fluorescent anisotropy value for a probe-protein mixture is the average of the value for bound and free probe. For the direct binding asaay, the data (anisotropy, A in mA vs galectin concentration, [G] in uM) were fitted to a simplified formula to obtain Kd.

In another assay the target is T1, Galectin-8 (Homo sapiens, UniProt O00214).
T1 sequence (O00214 whole entry): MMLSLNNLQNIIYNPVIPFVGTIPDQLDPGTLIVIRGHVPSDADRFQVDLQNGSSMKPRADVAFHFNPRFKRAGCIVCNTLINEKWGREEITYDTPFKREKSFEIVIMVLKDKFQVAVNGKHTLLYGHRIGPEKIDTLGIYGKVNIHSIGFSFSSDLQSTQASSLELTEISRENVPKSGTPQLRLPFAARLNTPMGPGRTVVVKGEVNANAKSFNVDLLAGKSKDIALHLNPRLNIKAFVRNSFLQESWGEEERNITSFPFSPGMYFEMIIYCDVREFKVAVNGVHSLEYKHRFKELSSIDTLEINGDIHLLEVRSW
Here is the method: as §1

Another assay deals with Galectin-9 (Homo sapiens, UniProt O00182). The method, then: as §1
Chain of Galectin-9 (O00182 whole entry): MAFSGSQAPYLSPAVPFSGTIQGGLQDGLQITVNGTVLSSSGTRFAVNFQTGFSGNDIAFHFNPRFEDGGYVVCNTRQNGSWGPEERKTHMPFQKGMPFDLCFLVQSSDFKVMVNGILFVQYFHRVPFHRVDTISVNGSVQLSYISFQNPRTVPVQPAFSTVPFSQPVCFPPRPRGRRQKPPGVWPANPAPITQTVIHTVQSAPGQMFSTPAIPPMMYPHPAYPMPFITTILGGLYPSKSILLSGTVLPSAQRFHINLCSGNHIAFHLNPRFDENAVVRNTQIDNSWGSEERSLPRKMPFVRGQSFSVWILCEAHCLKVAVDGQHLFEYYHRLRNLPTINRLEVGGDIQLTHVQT
A further assay deals with Galectin-7 (Homo sapiens, UniProt P47929). The method, then: as §1
Chain of Galectin-7 (P47929 whole entry): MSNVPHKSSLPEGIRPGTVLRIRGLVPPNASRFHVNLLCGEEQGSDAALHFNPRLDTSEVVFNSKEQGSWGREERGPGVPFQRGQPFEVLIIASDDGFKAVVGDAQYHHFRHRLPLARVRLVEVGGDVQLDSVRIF
The next assay addresses Galectin-1 (Homo sapiens, UniProt P09382). The settings on record: pH 7.2; 24 °C. The method, then: as §1

Structures are written as SMILES.

What is called Kd is a measure of binding affinity in units of concentration.

Chain of Galectin-3 (P17931 whole entry): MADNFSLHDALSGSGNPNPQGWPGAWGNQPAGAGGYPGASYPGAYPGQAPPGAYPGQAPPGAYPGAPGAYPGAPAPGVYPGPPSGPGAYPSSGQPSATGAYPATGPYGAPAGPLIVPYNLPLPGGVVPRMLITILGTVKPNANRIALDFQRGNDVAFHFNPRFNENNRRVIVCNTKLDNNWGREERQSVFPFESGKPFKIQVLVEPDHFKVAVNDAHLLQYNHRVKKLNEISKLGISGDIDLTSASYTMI
Chain of Galectin-1 (P09382 whole entry): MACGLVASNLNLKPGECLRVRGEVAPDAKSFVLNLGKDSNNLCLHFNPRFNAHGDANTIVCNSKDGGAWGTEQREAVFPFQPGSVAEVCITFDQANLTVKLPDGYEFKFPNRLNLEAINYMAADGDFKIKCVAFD

`CO[C@@H]1O[C@H](CO)[C@@H](O[C@@H]2O[C@H](CO)[C@H](O)[C@H](O)[C@H]2O)[C@H](O)[C@H]1NC(C)=O` [N-[(2R,3R,4R,5S,6R)-4-hydroxy-6-(hydroxymethyl)-2-methoxy-5-{[(2S,3R,4S,5R,6R)-3,4,5-trihydroxy-6-(hydroxymethyl)oxan-2-yl]oxy}oxan-3-yl]acetamide]: the Kd on Galectin-3 is 67 µM; on Galectin-8 it was 700 µM; at Galectin-9, 500 µM; at Galectin-7, 490 µM; at Galectin-1, 70 µM.
The matching figures for `CO[C@@H]1O[C@H](CO)[C@@H](O[C@@H]2O[C@H](CO)[C@H](O)[C@H](NC(=S)NCCO)[C@H]2O)[C@H](O)[C@H]1NC(C)=O` [N-[(2R,3R,4R,5S,6R)-5-{[(2S,3R,4S,5R,6R)-3,5-dihydroxy-4-{[(2-hydroxyethyl)carbamothioyl]amino}-6-(hydroxymethyl)oxan-2-yl]oxy}-4-hydroxy-6-(hydroxymethyl)-2-methoxyoxan-3-yl]acetamide]: 74 µM, 500 µM, 120 µM, 130 µM and 49 µM.
Take `CNC(=S)N[C@H]1[C@@H](O)[C@@H](CO)O[C@@H](O[C@H]2[C@H](O)[C@@H](NC(C)=O)[C@H](OC)O[C@@H]2CO)[C@@H]1O` [N-[(2R,3R,4R,5S,6R)-5-{[(2S,3R,4S,5R,6R)-3,5-dihydroxy-6-(hydroxymethyl)-4-[(methylcarbamothioyl)amino]oxan-2-yl]oxy}-4-hydroxy-6-(hydroxymethyl)-2-methoxyoxan-3-yl]acetamide]: the Kd on Galectin-3 was 38 µM; at Galectin-8, greater than 3000 µM; on Galectin-9, 110 µM; at Galectin-7 it was 65 µM; on Galectin-1, 49 µM.
As to `CO[C@@H]1O[C@H](CO)[C@@H](O[C@@H]2O[C@H](CO)[C@H](O)[C@H](NC(=S)N3CCOCC3)[C@H]2O)[C@H](O)[C@H]1NC(C)=O` [N-[(2R,3R,4R,5S,6R)-5-{[(2S,3R,4S,5R,6R)-3,5-dihydroxy-6-(hydroxymethyl)-4-[(morpholin-4-ylmethanethioyl)amino]oxan-2-yl]oxy}-4-hydroxy-6-(hydroxymethyl)-2-methoxyoxan-3-yl]acetamide], the values for the Kd on Galectin-3 and on Galectin-1 were 69 µM and 160 µM, respectively.
`CO[C@@H]1O[C@H](CO)[C@@H](O[C@@H]2O[C@H](CO)[C@H](O)[C@H](NC(=S)Nc3ccccc3)[C@H]2O)[C@H](O)[C@H]1NC(C)=O` [N-[(2R,3R,4R,5S,6R)-5-{[(2S,3R,4S,5R,6R)-3,5-dihydroxy-6-(hydroxymethyl)-4-[(phenylcarbamothioyl)amino]oxan-2-yl]oxy}-4-hydroxy-6-(hydroxymethyl)-2-methoxyoxan-3-yl]acetamide]: the Kd was 40 µM at Galectin-3; greater than 3000 µM at Galectin-8; 100 µM on Galectin-9; 110 µM at Galectin-7; 45 µM on Galectin-1.
The matching figures for `C=CCNC(=S)N[C@H]1[C@@H](O)[C@@H](CO)O[C@@H](O[C@H]2[C@H](O)[C@@H](NC(C)=O)[C@H](OC)O[C@@H]2CO)[C@@H]1O` [N-[(2R,3R,4R,5S,6R)-5-{[(2S,3R,4S,5R,6R)-3,5-dihydroxy-6-(hydroxymethyl)-4-[(prop-2-en-1-ylcarbamothioyl)amino]oxan-2-yl]oxy}-4-hydroxy-6-(hydroxymethyl)-2-methoxyoxan-3-yl]acetamide]: 52 µM, greater than 3000 µM, 97 µM, 100 µM and 34 µM.
The matching figures for `CO[C@@H]1O[C@H](CO)[C@@H](O[C@@H]2O[C@H](CO)[C@H](O)[C@H](NC(=S)NCCCO)[C@H]2O)[C@H](O)[C@H]1NC(C)=O` [N-[(2R,3R,4R,5S,6R)-5-{[(2S,3R,4S,5R,6R)-3,5-dihydroxy-6-(hydroxymethyl)-4-{[(3-hydroxypropyl)carbamothioyl]amino}oxan-2-yl]oxy}-4-hydroxy-6-(hydroxymethyl)-2-methoxyoxan-3-yl]acetamide]: 65 µM, greater than 3000 µM, 92 µM, 150 µM and 23 µM.
With `CO[C@@H]1O[C@H](CO)[C@@H](O[C@@H]2O[C@H](CO)[C@H](O)[C@H](NC(=S)NCc3cccnc3)[C@H]2O)[C@H](O)[C@H]1NC(C)=O` [N-[(2R,3R,4R,5S,6R)-5-{[(2S,3R,4S,5R,6R)-3,5-dihydroxy-6-(hydroxymethyl)-4-{[(pyridin-3-ylmethyl)carbamothioyl]amino}oxan-2-yl]oxy}-4-hydroxy-6-(hydroxymethyl)-2-methoxyoxan-3-yl]acetamide], the Kd on Galectin-3 came out at 35 µM; on Galectin-9, 47 µM; on Galectin-7, 23 µM; on Galectin-1 it was 43 µM.
As to `CO[C@@H]1O[C@H](CO)[C@@H](O[C@@H]2O[C@H](CO)[C@H](O)[C@H](NC(N)=S)[C@H]2O)[C@H](O)[C@H]1NC(C)=O` [N-[(2R,3R,4R,5S,6R)-5-{[(2S,3R,4S,5R,6R)-4-(carbamothioylamino)-3,5-dihydroxy-6-(hydroxymethyl)oxan-2-yl]oxy}-4-hydroxy-6-(hydroxymethyl)-2-methoxyoxan-3-yl]acetamide], the Kd was 65 µM on Galectin-3; greater than 3000 µM at Galectin-8; 76 µM at Galectin-9; 170 µM on Galectin-7; 43 µM at Galectin-1.
Take `CO[C@@H]1O[C@H](CO)[C@@H](O[C@@H]2O[C@H](CO)[C@H](O)[C@H](NC(=S)N[C@H]3[C@@H](O)[C@@H](CO)O[C@@H](O[C@H]4[C@H](O)[C@@H](NC(C)=O)[C@H](OC)O[C@@H]4CO)[C@@H]3O)[C@H]2O)[C@H](O)[C@H]1NC(C)=O` [N-[(2R,3R,4R,5S,6R)-5-{[(2S,3R,4S,5R,6R)-4-({[(2S,3R,4S,5R,6R)-2-{[(2R,3S,4R,5R,6R)-5-acetamido-4-hydroxy-2-(hydroxymethyl)-6-methoxyoxan-3-yl]oxy}-3,5-dihydroxy-6-(hydroxymethyl)oxan-4-yl]carbamothioyl}amino)-3,5-dihydroxy-6-(hydroxymethyl)oxan-2-yl]oxy}-4-hydroxy-6-(hydroxymethyl)-2-methoxyoxan-3-yl]acetamide]: the Kd at Galectin-3 was 160 µM; at Galectin-8 it was greater than 3000 µM; on Galectin-9, 240 µM; at Galectin-7, 170 µM; at Galectin-1 it was 58 µM.
In the case of `CO[C@@H]1O[C@H](CO)[C@@H](O[C@@H]2O[C@H](CO)[C@H](O)[C@H](NC(=S)NCc3ccccc3)[C@H]2O)[C@H](O)[C@H]1NC(C)=O` [N-[(2R,3R,4R,5S,6R)-5-{[(2S,3R,4S,5R,6R)-4-[(benzylcarbamothioyl)amino]-3,5-dihydroxy-6-(hydroxymethyl)oxan-2-yl]oxy}-4-hydroxy-6-(hydroxymethyl)-2-methoxyoxan-3-yl]acetamide], the figures for the equilibrium dissociation constant (Kd) at Galectin-3 and on Galectin-1 were 15 µM and 35 µM, respectively.
For the compound `CCCCNC(=S)N[C@H]1[C@@H](O)[C@@H](CO)O[C@@H](O[C@H]2[C@H](O)[C@@H](NC(C)=O)[C@H](OC)O[C@@H]2CO)[C@@H]1O` [N-[(2R,3R,4R,5S,6R)-5-{[(2S,3R,4S,5R,6R)-4-[(butylcarbamothioyl)amino]-3,5-dihydroxy-6-(hydroxymethyl)oxan-2-yl]oxy}-4-hydroxy-6-(hydroxymethyl)-2-methoxyoxan-3-yl]acetamide], the dissociation constant (Kd) on Galectin-3 was 23 µM; on Galectin-8, greater than 3000 µM; on Galectin-9, 69 µM; at Galectin-7, 130 µM; at Galectin-1, 23 µM.
With `CO[C@@H]1O[C@H](CO)[C@@H](O[C@@H]2O[C@H](CO)[C@H](O)[C@H](NC(=S)NC3CCCCC3)[C@H]2O)[C@H](O)[C@H]1NC(C)=O` [N-[(2R,3R,4R,5S,6R)-5-{[(2S,3R,4S,5R,6R)-4-[(cyclohexylcarbamothioyl)amino]-3,5-dihydroxy-6-(hydroxymethyl)oxan-2-yl]oxy}-4-hydroxy-6-(hydroxymethyl)-2-methoxyoxan-3-yl]acetamide], the dissociation constant Kd at Galectin-3 is 57 µM; at Galectin-8 it was 650 µM; at Galectin-9, 80 µM; at Galectin-7 it was 24 µM; at Galectin-1, 40 µM.
On the same counts, the results for `CCN(CC)C(=S)N[C@H]1[C@@H](O)[C@@H](CO)O[C@@H](O[C@H]2[C@H](O)[C@@H](NC(C)=O)[C@H](OC)O[C@@H]2CO)[C@@H]1O` [N-[(2R,3R,4R,5S,6R)-5-{[(2S,3R,4S,5R,6R)-4-[(diethylcarbamothioyl)amino]-3,5-dihydroxy-6-(hydroxymethyl)oxan-2-yl]oxy}-4-hydroxy-6-(hydroxymethyl)-2-methoxyoxan-3-yl]acetamide] are 43 µM, greater than 3000 µM, 280 µM, 180 µM and 46 µM.
